Values of other authors as cited in publication PMC6458983 (Cancer Chemotherapy and Pharmacology, 2019).

Details: cited from earlier work

## C#Cc1cccc(Nc2ncnc3cc(OCCOC)c(OCCOC)cc23)c1 [erlotinib]
Patient case study, at the time of ILD diagnosis
  trough plasma concentration: elevated
Three patients at the time of suspected ILD
  median trough concentrations versus patients without ILD: approximately three times higher
